Consider 20 compounds from US9999616B2 (ZENITH EPIGENETICS LTD., priority 2013, dated 2018).

The structures appear in SMILES notation. A value given as a limit tells only on which side of the number the result lay.

One test concerns Human AML MV-4-11 cells. Put plainly: Inhibition of cell proliferation in MV4-11 cells (CellTiter Aqueous One). Format: cell-based. The settings on record: for IC50: MV4-11, 72 h. The protocol:
MV4-11 cells (CRL-9591) were plated at a density of 5×10^4 cells per well in 96 well flat bottom plates and treated with increasing concentrations of test compound or DMSO (0.1%) in IMDM media containing 10% FBS and penicillin/streptomycin. Triplicate wells were used for each concentration and a well containing only media was used as a control. Plates were incubated at 37° C., 5% CO2 for 72 h before adding 20 µL of the CellTiter Aqueous One Solution (Promega) to each well and incubated at 37° C., 5% CO2 for an additional 3-4 h. The absorbance was read at 490 nm in a spectrophotometer and the percentage of cell titer relative to DMSO-treated cells was calculated after correcting for background by subtracting the blank well's signal. IC50 values were calculated using the GraphPad Prism software.

In test [1] the target is Brd4 bromodomain 1 (BRD4(1)) (Homo sapiens, UniProt O60885). The experiment in a line: Inhibition of tetra-acetylated histone H4 binding to Brd4 bromodomain 1, measured by FRET (HTRF). Further details: made in house; host or cells: E. coli BL21(DE3). The settings on record: 2 h at room temperature. In short, it runs like this:
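Inhibition was read as a drop in 665 nm relative to 620 nm HTRF signal after 2 h at room temperature, with IC50 from dose-response curves in duplicate wells. Reactions held 200 nM E. coli-expressed His-tagged bromodomain and 25-50 nM biotinylated tetra-acetylated histone H4 peptide. Buffer was 30 mM HEPES pH 7.4 with KF, CHAPS, BSA and 0.2% DMSO.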
(In general: Time-resolved FRET reads energy transfer from a long-lived donor to a nearby acceptor.)

The next test has as its system hIL-6 mRNA. The experiment in a line: Inhibition of hIL-6 mRNA transcription in LPS-stimulated U937 macrophages. The test is classed as cell-based, Human. The settings on record: Homo sapiens, U-937, PMA-differentiated U937 cells, 1 h pretreatment, LPS 3 h, read-out: IL-6 activity. The protocol: Human leukemic monocyte lymphoma U937 cells (CRL-1593.2) were plated at a density of 3.2×10^4 cells per well in a 96-well plate in 100 μL RPMI-1640 containing 10% FBS and penicillin/streptomycin, and differentiated into macrophages for 3 days in 60 ng/mL PMA ([…]) at 37° C. in 5% CO2 prior to the addition of compound. The cells were pretreated for 1 h with increasing concentrations of test compound in 0.1% DMSO prior to stimulation with 1 ug/mL lipopolysaccharide from Escherichia coli. Triplicate wells were used for each concentration. The cells were incubated at 37° C., 5% CO2 for 3 h before the cells were harvested. At time of harvest, media was removed and cells were rinsed in 200 μL PBS. Cells were harvested using the mRNA Catcher PLUS kit according to manufacturer's instructions. The eluted mRNA was then used in a one-step quantitative real-time PCR reaction using components of the RNA UltraSense™ One-Step Kit (Life Technologies) together with Applied Biosystems TaqMan® primer-probes for hIL-6 and Cyclophilin. Real-time PCR plates were run on a ViiA™7 real time PCR machine (Applied Biosystems), data was analyzed, normalizing the Ct values for hlL-6 to an internal control, prior to determining the fold expression of each sample, relative to the control.

The subject of test [2] is c-myc in Human AML MV4-11 cells. Put plainly: Inhibition of cMYC expression (mRNA, real-time PCR) in MV4-11 cells. The settings on record: 3 h treatment, cMYC mRNA by real-time PCR. Format: cell-based. Here is the method: MV4-11 cells (CRL-9591) were plated at a density of 2.5×10^4 cells per well in 96 well U-bottom plates and treated with increasing concentrations of test compound or DMSO (0.1%) in IMDM media containing 10% FBS and penicillin/streptomycin, and incubated for 3 h at 37′C. Triplicate wells were used for each concentration. Cells were pelleted by centrifugation and harvested using the mRNA Catcher PLUS kit according to manufacturer's instructions. The eluted mRNA isolated was then used in a one-step quantitative real-time PCR reaction, using components of the RNA UltraSense™ One-Step Kit (Life Technologies) together with Applied Biosystems TaqMan® primer-probes for cMYC and Cyclophilin. Real-time PCR plates were run on a ViiA™7 real time PCR machine (Applied Biosystems), data was analyzed, normalizing the Ct values for cMYC to an internal control, prior to determining the fold expression of each sample, relative to the control.
(Quantitative PCR measures a nucleic acid by following its amplification.)

For `Cc1noc(C)c1-c1cc(Nc2ccccc2)c2nncn2c1` [Example Compound 15, 6-(3,5-dimethylisoxazol-4-yl)-N-phenyl-[1,2,4] triazolo[4,3-a]pyridin-8-amine], the “Cell Proliferation activity” value in the test with Human AML MV-4-11 cells (72 h) is reported as “Not active”. Further, the IC50 is at most 300 nM in test [1], 3000 to 30000 nM with hIL-6 mRNA and 3000 to 30000 nM in test [2].
In the case of `Cc1noc(C)c1-c1cc(-c2ccnn2C)c2nc[nH]c2c1` [Example Compound 16, 3,5-dimethyl-4-(4-(1-methyl-1H-pyrazol-5-yl)-1H-benzo[d]imidazol-6-yl)isoxazole], the IC50 with Human AML MV-4-11 cells was 300 to 3000 nM; in test [1], at most 300 nM; in the test on hIL-6 mRNA, at most 300 nM; in test [2], 300 to 3000 nM.
`Cc1nn(C)cc1-c1cc(-c2c(C)noc2C)cc2[nH]cnc12` [Example Compound 18, 4-(4-(1,3-dimethyl-1H-pyrazol-4-yl)-1H-benzo [d]imidazol-6-yl)-3,5-dimethyl isoxazole]: the IC50 in the test on Human AML MV-4-11 cells was 300 to 3000 nM; in test [1], at most 300 nM; with hIL-6 mRNA, at most 300 nM; in test [2], 300 to 3000 nM.
Regarding `Cc1noc(C)c1-c1cc(-c2cccc3c2cnn3C)c2nc[nH]c2c1` [Example Compound 23, 3,5-dimethyl-4-(4-(1-methyl-1H-indazol-4-yl)-1H-benzo[d]imidazol-6-yl)isoxazole], the IC50 was 300 to 3000 nM in the test on Human AML MV-4-11 cells, at most 300 nM in test [1], at most 300 nM in the test on hIL-6 mRNA and 300 to 3000 nM in test [2].
As for `Cc1noc(C)c1-c1cc(NCc2ccccc2)c2nncn2c1` [Example Compound 24, N-benzyl-6-(3,5-dimethylisoxazol-4-yl)-[1,2,4]triazolo[4,3-o]pyridin-8-amine], the IC50 in the test on Human AML MV-4-11 cells was 3000 to 30000 nM; in test [1] it was at most 300 nM; in the test with hIL-6 mRNA, 300 to 3000 nM; in test [2] it was 300 to 3000 nM.
With `COc1ccc(Nc2cc(-c3c(C)noc3C)cc3[nH]cnc23)cc1` [Example Compound 25, 6-(3,5-dimethylisoxazol-4-yl)-N-(4-methoxyphenyl)-1H-benzo[d]imidazol-4-amine], the IC50 (in the test on Human AML MV-4-11 cells; in test [1]; in the test on hIL-6 mRNA; in test [2]) was 300 to 3000 nM throughout.
Take `Cc1ncsc1-c1cc(-c2c(C)noc2C)cc2[nH]cnc12` [Example Compound 26, 3,5-dimethyl-4-(4-(4-methylthiazol-5-yl)-1H-benzo[d]imidazol-6-yl)isoxazole]: the IC50 is 300 to 3000 nM in the test with Human AML MV-4-11 cells, at most 300 nM in test [1], at most 300 nM in the test on hIL-6 mRNA and 300 to 3000 nM in test [2].
With `Cc1noc(C)c1-c1cc(-c2ccccc2CN(C)C)c2nc[nH]c2c1` [Example Compound 28, 1-(2-(6-(3,5-dimethyl-isoxazol-4-yl)-1H-benzo[d]imidazol-4-yl)phenyl)-N,N-dimethyl methanamine], the IC50 (in the test with Human AML MV-4-11 cells; in test [1]; with hIL-6 mRNA; in test [2]) was 300 to 3000 nM each time.
For `Cc1noc(C)c1-c1cc(Nc2cccc(F)c2)c2nc[nH]c2c1` [Example Compound 32, 6-(3,5-dimethyl-isoxazol-4-yl)-N-(3-fluorophenyl)-1H-benzo[d] imidazol-4-amine], the IC50 in the test on Human AML MV-4-11 cells was 300 to 3000 nM; in test [1], at most 300 nM; in the test on hIL-6 mRNA, 300 to 3000 nM; in test [2], 300 to 3000 nM.
Consider `COc1cccc(Nc2cc(-c3c(C)noc3C)cc3[nH]cnc23)c1` [Example Compound 33, 6-(3,5-dimethyl-isoxazol-4-yl)-N-(3-methoxy-phenyl)-1H-benzo[d] imidazol-4-amine], for which the IC50 with Human AML MV-4-11 cells was 300 to 3000 nM; in test [1], at most 300 nM; in the test with hIL-6 mRNA it was 300 to 3000 nM; in test [2], 300 to 3000 nM.
Consider `Cc1noc(C)c1-c1cc(-c2c(C)noc2C)c2nc(C(F)(F)F)[nH]c2c1` [Example Compound 34, 4,4′-(2-(trifluoromethyl)-1H-benzo[d]imidazole-4,6-diyl)bis(3,5-dimethylixaole)], for which the IC50 is 300 to 3000 nM with Human AML MV-4-11 cells, at most 300 nM in test [1], 300 to 3000 nM in the test with hIL-6 mRNA and 300 to 3000 nM in test [2].
For the compound `Cc1noc(C)c1-c1cc(NCc2cccnc2)c2nc[nH]c2c1` [Example Compound 35, 6-(3,5-dimethyl-isoxazol-4-yl)-N-(pyridin-3-ylmethyl)-1H-benzo[d] imidazol-4-amine], the IC50 with Human AML MV-4-11 cells is 300 to 3000 nM; in test [1], at most 300 nM; in the test on hIL-6 mRNA it was 300 to 3000 nM; in test [2], 300 to 3000 nM.
For the compound `Cc1noc(C)c1-c1cc(-c2cccc(C(N)=O)c2)c2nc[nH]c2c1` [Example Compound 36, 3-(6-(3,5-dimethyl-isoxazol-4-yl)-1H-benzo[d]imidazol-4-yl)benzamide], the IC50 in the test with Human AML MV-4-11 cells was 300 to 3000 nM; in test [1] it was at most 300 nM; with hIL-6 mRNA it was 300 to 3000 nM; in test [2], 300 to 3000 nM.
As to `Cc1noc(C)c1-c1cc(NCc2ccc(F)cc2)c2nc[nH]c2c1` [Example Compound 38, 6-(3,5-dimethyl-isoxazol-4-yl)-N-(4-fluorobenzyl)-1H-benzo[d] imidazol-4-amine], the IC50 in the test with Human AML MV-4-11 cells is 300 to 3000 nM; in test [1], at most 300 nM; in the test with hIL-6 mRNA, 300 to 3000 nM; in test [2], 300 to 3000 nM.
With `Cc1conc1Nc1cc(-c2c(C)noc2C)cc2[nH]cnc12` [Example Compound 44, N-(6-(3,5-dimethyl-isoxazol-4-yl)-1H-benzo[d]imidazol-4-yl)-4-methyl-isoxazol-3-amine], the IC50 (in the test on Human AML MV-4-11 cells; in test [1]; in the test with hIL-6 mRNA; in test [2]) was 300 to 3000 nM in each case.
Turning to `COc1ccc(C)cc1-c1cc(-c2c(C)noc2C)cc2[nH]cnc12` [Example Compound 51, 4-(4-(2-methoxy-5-methyl-phenyl)-1H-benzo[d]midazol-6-yl)-3,5-dimethyl isoxazole], the IC50 in the test with Human AML MV-4-11 cells is 300 to 3000 nM; in test [1], at most 300 nM; with hIL-6 mRNA it was 300 to 3000 nM; in test [2] it was 300 to 3000 nM.
On to `Cc1nc2c(-c3csnc3C)cc(-c3c(C)noc3C)cc2[nH]1` [Example Compound 52, 3,5-dimethyl-4-(2-methyl-7-(3-methyliso-thiazol-4-yl)-1H-benzo[d]imidazol-5-yl)isoxazole], for which the IC50 is 300 to 3000 nM in the test on Human AML MV-4-11 cells, at most 300 nM in test [1], 300 to 3000 nM in the test on hIL-6 mRNA and 300 to 3000 nM in test [2].
Consider `Cc1nc2c(-c3cnccc3C)cc(-c3c(C)noc3C)cc2[nH]1` [Example Compound 53, 3,5-dimethyl-4-(2-methyl-4-(4-methyl-pyridin-3-yl)-1H-benzo[d]imidazol-6-yl)isoxazole], for which the IC50 in the test with Human AML MV-4-11 cells is 300 to 3000 nM; in test [1] it was at most 300 nM; with hIL-6 mRNA, at most 300 nM; in test [2] it was 300 to 3000 nM.
Take `Cc1noc(C)c1-c1cc(-c2c(C)noc2C)c2c(cnn2C)c1` [Example Compound 54, 4,4′-(1-methyl-1H-indazole-5,7-diyl)bis(3,5-dimethylisoxazole)]: the IC50 in the test with Human AML MV-4-11 cells was at most 300 nM; in test [1] it was at most 300 nM; with hIL-6 mRNA, 300 to 3000 nM; in test [2] it was 300 to 3000 nM.
As to `Cc1noc(C)c1-c1cc(-c2c(C)noc2C)c2nn(C)cc2c1` [Example Compound 55, 4,4′-(2-methyl-2H-indazole-5,7-diyl)bis(3,5-dimethylisoxazole)], the IC50 with Human AML MV-4-11 cells was 300 to 3000 nM; in test [1], at most 300 nM; in the test on hIL-6 mRNA, 300 to 3000 nM; in test [2] it was 300 to 3000 nM.
